From ChEMBL document CHEMBL6109142 (J Med Chem, 2025)
Active and inactive are the calls of the source. The calls are words filed in the database; no cut-off is given here.

System: SARS-CoV-2
Test: Antiviral activity against SARS-CoV-2 pseudotyped with delta spike protein infected in HEK293T cells harbouring hACE2 assessed as decrease in virus-like particle cellular entry at 10 uM preincubated with cells for 3 hrs followed by viral infection and measured after 72 hrs by ONE-Glo-Ex luciferase assay
Format: functional, organism-based
Settings: Severe acute respiratory syndrome coronavirus 2, time 75.0 hrs

Structure (SMILES) | Activity
N=C(N)NCCC[C@H](NC(=O)[C@H](Cc1ccccc1)NC(=O)[C@H](CCC(N)=O)NC(=O)OCc1ccccc1)C(=O)c1nccs1 | inactive
CCOC(=O)[C@H]1O[C@@H]1C(=O)N[C@@H](CC(C)C)C(=O)NCCC(C)C | Active
CS(=O)(=O)N[C@@H](CCC(N)=O)C(=O)N[C@@H](Cc1ccccc1)C(=O)N[C@@H](CCCNC(=N)N)C(=O)c1nc2ccccc2s1 | inactive
CN(C)C(=O)COC(=O)Cc1ccc(OC(=O)c2ccc(NC(=N)N)cc2)cc1 [CAMOSTAT] | inactive
